According to patent US20100062012A1, “Negative Genetic Regulation of Cancer Cell Renewal in Synergy with Notch- or Numb-Specific Immunotherapy” (priority 2007, published 2010):
Structures can show the parent of a compound that is named as a salt. Peptide text beside a SMILES is read from it. * marks the point of attachment. Cbz = O=C(OCc1ccccc1)*

How the values were obtained:
SKOV3.A2 cells = assay: IFN-g production by Numb-1 peptide activated PBMC on SKOV3.A2 cells; format: cell-based, human; details: presentation of Numb-1(87-95) peptide; 24 h and 48 h
Experimental: FIG. 11. (A). SKOV3.A2 cells present the Numb-1 (87-95) peptide to Numb-1 peptide activated PBMC. Substantially higher, by 2-fold IFN-g production by Numb-1-peptide activated PBMC than by Notch peptides activated PBMC. Note that at 48 h the amount of IFN g produced by the two Notch peptide activated cell lines and the non-specifically, IL-2-activated cell lines was low and similar. Only Notch peptide, 2112-2120, can be presented by HL-A2 after Notch digestion by proteasome. (the program paproc.de). (B). Western analysis of Notch and Numb protein expression in SKOV3. […] A part of Numb is phosphorylated. A small part of Numb was phosphorylated at the Ser^283. A large part of Numb was phosphorylated at the Ser^264. […] The closed symbols indicate are 24 h measurements, the open symbols indicate 48 h measurements.

MCF7 [1] = assay: MTT inhibition of proliferation; format: cell-based; details: Homo sapiens, 72 h
Text: (§1) Inhibition of proliferation of tumor cell lines by anticancer drugs.

MIA-PaCa-2 [2] = assay: MTT inhibition of proliferation; format: cell-based; details: Homo sapiens; MIA-PaCa-2, MTT, 72 h
Text: as §1

PANC-1 [3] = assay: MTT inhibition of proliferation; format: cell-based; details: Homo sapiens; PANC-1, MTT, 72 h
Text: as §1

AsPC-1 [4] = assay: MTT inhibition of proliferation; format: cell-based, human; details: for IC50: AsPC-1, MTT, 72 h
Text: as §1

SKOV-3 [5] = assay: MTT inhibition of proliferation; format: cell-based, human; details: SKOV-3, MTT
Text: as §1

AsPC-1 [6] = assay: Flow cytometry of CSt-C markers after culture with drugs; format: cell-based, human; details: AsPC-1 after culture with drug
Experimental: (§2) Flow cytometery analysis. All cells were cultured with Gem at 2×IC50 of gemcitabine for 10 days. Cultured cells (2×10^5) were washed in cold-PBS followed by blocking with 20 μL of 1 mg/mL of human IgG (Sigma, Saint Louis, Mo.) for 1 hour on ice. This step was necessary to inhibit non-specific binding of immunoglobulins during staining. Cells were then triple-stained with antibodies against ESA, CD44, and CD24. Analysis was performed with Becton Dickinson FACSCalibur and Cell Quest software (Becton Dickinson). Cells were gated on ESA+ population. Expression of CD24 and CD44 was examined in gated ESA+ cells as we described (26). The population of the ESA+, CD44hi and CD24low/− cells was calculated as percent of total cells and total ESA+ cells. All cell lines were also stained with a MIC-A/B and CD133, and analyzed as above.

MCF7 [7] = assay: as above; format: cell-based, human; details: for cells harvested: after culture of 3×10^6 MCF-7 cells
Experimental: as §2

MIA-PaCa-2 [8] = assay: as above; format: cell-based, human; details: for % CD44hi CD24- in ESA+ cells / % CD44hi CD24hi in ESA+ cells / % CD44hi CD24low in ESA+ cells / % CSt-like-C / % ESA+: MIA-PaCa-2 after culture with drug
Experimental: as §2

PANC-1 [9] = assay: as above; format: cell-based, human
Experimental: as §2

SKOV-3 [10] = assay: as above; format: cell-based, human
Experimental: as §2

MCF7 cells = assay: Stimulation of MCF7 / GEMRes MCF7 by DLL4; format: cell-based, human
Experimental: Stimulation of GEMRes MCF7 by DLL4. GEMRes MCF7 were obtained after culture with 0.3 uM GEM for 7 weeks. MCF7 were stimulated for 24 hrs, in medium containing estradiol, fibroblast growth factor in the presence or absence of DLL4, as described (40).

MIA-PaCa-2 [11] = assay: Flow cytometry of NKG2D ligands MIC-A/B in drug-resistant cells; format: cell-based, human; details: MIA PaCa-2, FIG. 7A
Experimental: as §2
To address the hypothesis that drug-resistant cancer cells are more sensitive to cellular immune effectors, we quantified expression of NKG2D ligands, MIC-A and -B (58, 59). ESA^+ MIA-PaCa-2 cells were analyzed for MIC-A/B. MCF7 cells were analyzed with CD44, CD24 and MIC-A/B (FIG. 7B), because almost all MCF7 cells (95% and more) expressed ESA.

MCF7 [12] = assay: Quantitative immunoblot of Notch and Numb proteins with or without GEM; format: cell-based, human
Experimental: (§3) Western blot analysis. Cell lysates of live MIA-PaCa-2, MCF7, and SKOV-3 were prepared as we described (74) after trypsin treatment of cultures. This procedure eliminated dead and dying cells. Cellular proteins were resolved by SDS-PAGE and transferred to a polyvinylidene difluoride membrance. Immuno-blotting and quantification was performed as we described (74). […] Notch signals promote survival and proliferation of normal stem cells. Notch signals are mediated by truncated intracellular domain (NICD), which activate transcription in the nucleus. Numb antagonizes Notch signal by inducing degradation of Notch (60, 13). Mammalian Numb has four splicing isoforms, which are divided into two types (Numb^L and Numb^S) based on the presence or absence of a 49 amino acid insert (5 kDa) in the proline-rich region (PRR) in the C-terminus. It is unclear whether Numb^L or Numb^S is a significant antagonist of Notch. To characterize expression of Notch and Numb proteins we performed quantitative immunoblot analysis of proteins in the lysates of live MIA-PaCa-2 and MCF7 cultured with or without GEM. (FIG. 9).

MIA-PaCa-2 [13] = assay: as above; format: cell-based, human
Experimental: as §3

MIA-PaCa-2 [14] = assay: Flow cytometry of CSt-C markers after culture with drugs; format: cell-based, human; details: starting from 3.0×10^6 Mia-PaCa-2 cells
breast tumors = details: reference 14; cited from earlier work
Ovarian and PC = assay: CD44+ CD24lo cells after taxol; format: cell-based; details: Ovarian and PC treated

Structure (SMILES): C[S+]([O-])c1ccc(-c2nc(-c3ccc(F)cc3)c(-c3ccncc3)[nH]2)cc1 (stereo not shown) [SB20380]
- effect of treatment of SKOV3.A2 cells on IFN-g production by the indicator cell line (SKOV3.A2 cells): weaker inhibitory effect

Structure (SMILES): CN[C@@H]1C[C@H]2O[C@@](C)([C@@H]1OC)n1c3ccccc3c3c4c(c5c6ccccc6n2c5c31)C(=O)NC4 [staurosporine]
- effect of treatment of SKOV3.A2 cells on IFN-g production by the indicator cell line (SKOV3.A2 cells): abolished

Structure (SMILES): Nc1ccn([C@@H]2O[C@H](CO)[C@@H](O)C2(F)F)c(=O)n1 [GEM, gemcitabine hydrochloride]
- IC50 (MCF7 [1]): 430 nM
- IC50 (MIA-PaCa-2 [2]): 300 nM
- IC50 (PANC-1 [3]): 350 nM
- IC50 (AsPC-1 [4]; hydrochloride): 20 nM
- IC50 (AsPC-1 [4]; Homo sapiens, ASPC1, 72 h): < 20 nM
- IC50 (SKOV-3 [5]; Homo sapiens, SK-OV-3, 72 h): < 20 nM
- IC50 (SKOV-3 [5]; 72 h, hydrochloride): 16 nM
- % CD44hi CD24- in ESA+ cells (AsPC-1 [6]): 19.3%
- % CD44hi CD24hi in ESA+ cells (AsPC-1 [6]): 20.1%
- % CD44hi CD24low in ESA+ cells (AsPC-1 [6]): 58.2%
- % CSt-like-C (AsPC-1 [6]): 57.6%
- % ESA+ (AsPC-1 [6]): 98.9%
- change of CSt-like-C population (MCF7 [7]; MCF7): increased
- increase of ESA+ CD44hi CD24low and CD133+ populations in GEMRes population vs entire population (MCF7 [7]; MCF7): 3-5 fold
- % CD44hi CD24- in ESA+ cells (MCF7 [7]; MCF7 after culture with drug): 0.3%
- % CD44hi CD24hi in ESA+ cells (MCF7 [7]; MCF7 after culture with drug): 10.2%
- % CD44hi CD24low in ESA+ cells (MCF7 [7]; MCF7 after culture with drug): 6.3%
- % CSt-like-C (MCF7 [7]; MCF7 after culture with drug): 6.3%
- % ESA+ (MCF7 [7]; MCF7 after culture with drug): 95.4%
- cells harvested (MCF7 [7]): 0.6 ×10^6
- change of CSt-C (CSt-like-C) population (MIA-PaCa-2 [8]; MIA-PaCa-2): increased
- % CD44hi CD24- in ESA+ cells (MIA-PaCa-2 [8]): 1.1%
- % CD44hi CD24hi in ESA+ cells (MIA-PaCa-2 [8]): 12.2%
- % CD44hi CD24low in ESA+ cells (MIA-PaCa-2 [8]): 43.2%
- % CSt-like-C (MIA-PaCa-2 [8]): 17.0%
- % ESA+ (MIA-PaCa-2 [8]): 39.5%
- increase of ESA+ CD44hi CD24low and CD133+ populations in GEMRes population vs entire population (MIA-PaCa-2 [8]; Mia-PaCa-2): 3-5 fold
- increase of ESA+ CD44hi CD24low and CD133+ populations in GEMRes population vs entire population (PANC-1 [9]; PANC-1): 3-5 fold
- % CD44hi CD24- in ESA+ cells (PANC-1 [9]; PANC-1 after culture with drug): 8.6%
- % CD44hi CD24hi in ESA+ cells (PANC-1 [9]; PANC-1 after culture with drug): 9.7%
- % CD44hi CD24low in ESA+ cells (PANC-1 [9]; PANC-1 after culture with drug): 50.0%
- % CSt-like-C (PANC-1 [9]; PANC-1 after culture with drug): 38.3%
- % ESA+ (PANC-1 [9]; PANC-1 after culture with drug): 76.7%
- increase of ESA+ CD44hi CD24low and CD133+ populations in GEMRes population vs entire population (SKOV-3 [10]; SKOV3): 3-5 fold
- % CD44hi CD24- in ESA+ cells (SKOV-3 [10]; SKOV-3 after culture with drug): 0.1%
- % CD44hi CD24hi in ESA+ cells (SKOV-3 [10]; SKOV-3 after culture with drug): 46.0%
- % CD44hi CD24low in ESA+ cells (SKOV-3 [10]; SKOV-3 after culture with drug): 51.5%
- % CSt-like-C (SKOV-3 [10]; SKOV-3 after culture with drug): 50.2%
- % ESA+ (SKOV-3 [10]; SKOV-3 after culture with drug): 97.5%
- GEMRes MCF7 cells in G1 (resting) phase (MCF7 cells): > 90%
- CD44hi CD24hi (% of cells) (MCF7 cells; MCF7): 19.7%
- CD44hi CD24hi (cell number) (MCF7 cells; MCF7): 0.26
- CD44hi CD24low (% of cells) (MCF7 cells; MCF7): (7.1%)
- CD44hi CD24low (cell number) (MCF7 cells; MCF7): 0.09 × 10^6
- ratio CD44hi CD24hi to CD44hi CD24low (MCF7 cells; MCF7): 2
- Stimulation Index (MCF7 cells; MCF7, harvested/seeded): 0.44
- Harvested cells (MCF7 cells; MCF7, seeded 3.0 x 10^6): 1.32 10^6
- number of cells expressing MICA and MICB in drug-resistant cells (MIA-PaCa-2 [11]): increased
- NECD expression increase, GEMRes vs GEMSens (MCF7 [12]): 73%
- NICD level decrease, GEMRes vs GEMSens (MCF7 [12]): 39%
- NumbL expression decrease, GEMRes vs GEMSens (MCF7 [12]): 29%
- NumbS decrease, GEMRes vs GEMSens (MCF7 [12]): 18%
- NECD expression increase, GEMRes vs GEMSens (MIA-PaCa-2 [13]): 18%
- NICD level increase, GEMRes vs GEMSens (MIA-PaCa-2 [13]): 35%
- NumbL expression increase, GEMRes vs GEMSens (MIA-PaCa-2 [13]): 50%
- NumbS decrease, GEMRes vs GEMSens (MIA-PaCa-2 [13]): 18%
- cells harvested (MIA-PaCa-2 [14]): 1.3 ×10^6 cells

Structure (SMILES): CC(C)C[C@@H](C=O)NC(=O)[C@H](CC(C)C)NC(=O)[C@H](CC(C)C)NC(=O)OCc1ccccc1 [MG132] (Cbz-Leu-Leu-Leu-aldehyde)
- low Numb levels after treatment (breast tumors): restored to high levels

Structure (SMILES): CC(=O)O[C@H]1C(=O)[C@@]2(C)[C@H]([C@H](OC(=O)c3ccccc3)[C@]3(O)C[C@H](OC(=O)[C@H](O)[C@@H](NC(=O)c4ccccc4)c4ccccc4)C(C)=C1C3(C)C)[C@]1(OC(C)=O)CO[C@@H]1C[C@@H]2O [PTX, paclitaxel]
- IC50 (MCF7 [1]): 4.5 nM
- IC50 (MIA-PaCa-2 [2]): 5.3 nM
- IC50 (PANC-1 [3]): 3.9 nM
- IC50 (AsPC-1 [4]; Homo sapiens, ASPC1, 72 h): 18.3 nM
- IC50 in AsPC-1 relative to PANC-1 (AsPC-1 [4]; most resistant vs most sensitive line): more than 4 fold
- IC50 (SKOV-3 [5]; Homo sapiens, SK-OV-3, 72 h): 4.7 nM
- change of CSt-like-C population (MCF7 [7]; MCF7): increased
- cells harvested (MCF7 [7]): 0.4 ×10^6
- % CD44hi CD24- in ESA+ cells (MIA-PaCa-2 [8]): 1.0%
- % CD44hi CD24hi in ESA+ cells (MIA-PaCa-2 [8]): 21.2%
- % CD44hi CD24low in ESA+ cells (MIA-PaCa-2 [8]): 23.1%
- % CSt-like-C (MIA-PaCa-2 [8]): 7.7%
- % ESA+ (MIA-PaCa-2 [8]): 33.2%
- number of cells expressing MICA and MICB in drug-resistant cells (MIA-PaCa-2 [11]): did not increase
- number of CD44+ CD24lo cells (Ovarian and PC): increased
- cells harvested (MIA-PaCa-2 [14]): 3.3 ×10^6 cells
